The values below come from the supplement of paper PMC11061612.

One assay has as its system EW-1 (Ewing's Sarcoma). Nature of the assay: combination Emax (second highest fraction inhibited in the dose matrix, 72 h); higher = more inhibition; extreme values may be limits of the assay. An outline of the steps: (§1)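 After 24 hours at 37°C and 5% CO2 in 1536-well plates, cells in DMEM/F12 or RPMI plus 10% FBS received two-drug dose matrices for 72 hours. Viability came from CellTiter-Glo 2.0 luminescence and was scaled as inhibition, anchored at 0 by vehicle wells and at 1 by blank wells. Combination Emax is taken as the second-highest inhibition in the matrix, and Bliss excess as the observed combination effect less EA + EB − EA·EB, with EA and EB the single-agent effects.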

Assay [1] concerns SK-LU-1 (Lung Adenocarcinoma). The description is as above. The method in brief: as §1
The subject of assay [2] is KGN (Other Solid Carcinomas). The description is as above. An outline of the steps:
as §1

The subject of assay [3] is NCI-H2122 (Lung Adenocarcinoma). Described as above. An outline of the steps: as §1
Assay [4] relates to SW872 (Other Solid Carcinomas). Described as above. The method in brief: as §1
The subject of assay [5] is KOPN-8 (B-Lymphoblastic Leukemia). Described as above. The method in brief:
as §1

Assay [6] relates to OACM5-1 (Esophageal Adenocarcinoma). The description is as above. An outline of the steps: as §1
The subject of assay [7] is A4-Fuk (B-Lymphoblastic Leukemia). The assay is described as above. An outline of the steps: as §1
The next assay deals with COLO-679 (Melanoma). The description is as above. The method in brief:
as §1

Assay [8] concerns MV-4-11 (Acute Myeloid Leukemia). Described as above. The method in brief:
as §1

Assay [9] concerns SNU-387 (Hepatocellular Carcinoma). Described as above. The method in brief: as §1
The subject of assay [10] is MDA-MB-453 (Breast Carcinoma). The assay is described as above. An outline of the steps: as §1
For assay [11], the system named is HAL-01 (B-Lymphoblastic Leukemia). The assay is described as above. An outline of the steps: as §1
In assay [12] the test system is ME-180 (Cervical Carcinoma). The assay is described as above. An outline of the steps:
as §1

The test system of assay [13] is NCI-H1838 (Lung Adenocarcinoma). Described as above. An outline of the steps:
as §1

Assay [14] deals with NCI-H1092 (Small Cell Lung Carcinoma). Described as above. An outline of the steps:
as §1

In assay [15] the test system is MOLT-4 (T-Lymphoblastic Leukemia). The description is as above. An outline of the steps:
as §1

In assay [16] the test system is HCC1937 (Breast Carcinoma). The description is as above. The method in brief: as §1
In assay [17] the test system is EJM (Plasma Cell Myeloma). Nature of the assay: Bliss excess, mean over the matrix (fraction); higher = more synergy. The method in brief: as §1
In assay [18] the test system is NCI-H2122 (Lung Adenocarcinoma). Described as above. The method in brief:
as §1

Consider `Cc1c2c(nn1C)CSCc1cc(n(C)n1)CSc1cc(c3ccccc3c1)OCCCc1c(C(=O)O)n(C)c3c-2c(Cl)ccc13` [AZD5991] + C[C@@H]1COCCN1C2=NC(=NC(=C2)C3(CC3)[S@](=N)(=O)C)C4=C5C=CNC5=NC=C4 [AZD6738] (first compound max 1 µM, 7x7, partner max 10 µM), for which the “combination Emax” value in the assay on EW-1 (Ewing's Sarcoma) was 0.965; in [1], 0.521; in assay [2], 0.772; in assay [3] it was 0.957; in assay [4], 0.547; in [5], 0.998. Also, the “combination Emax” value in [6] is 0.928; in assay [7], 1; with COLO-679 (Melanoma), 0.674; in assay [8] it was 1; in [9], 0.638; in assay [10] it was 0.886. Further, the “combination Emax” value was determined as 0.987 in assay [11]; 0.485 in assay [12]; 0.72 in assay [13]; 0.887 in assay [14]; 1 in assay [15]; 0.557 in assay [16]. The Bliss excess in [17] came out at 0.0277; in [18], 0.0199.
In the case of `Cc1c2c(nn1C)CSCc1cc(n(C)n1)CSc1cc(c3ccccc3c1)OCCCc1c(C(=O)O)n(C)c3c-2c(Cl)ccc13` [AZD5991] + C[C@@H](Nc1cc(F)cc(F)c1)c1cc(C(=O)N(C)C)cc2c(=O)cc(N3CCOCC3)oc12 [AZD8186] (first compound max 1 µM, 7x7, partner max 3 µM), the “combination Emax” value with EW-1 (Ewing's Sarcoma) is 0.367; in assay [1], 0.384; in assay [2], 0.443; in assay [3] it was 0.697; in [4] it was 0.321; in [5] it was 0.915. The “combination Emax” value in assay [6] came to 0.94; in assay [7] it was 1; in the assay with COLO-679 (Melanoma) it was 0.332; in [8] it was 1; in assay [9], 0.41; in assay [10], 0.355. Moreover, the “combination Emax” value in assay [11] stood at 0.734; in assay [12], 0.217; in [13], 0.472; in assay [14], 0.569; in [15], 0.526; in assay [16] it was 0.511. The Bliss excess in assay [17] was -0.0129; in assay [18], 0.0684.
For the molecule `Cc1c2c(nn1C)CSCc1cc(n(C)n1)CSc1cc(c3ccccc3c1)OCCCc1c(C(=O)O)n(C)c3c-2c(Cl)ccc13` [AZD5991] + Cc1cc2ncnn2cc1Nc1ncc2c(n1)n(C1CCOCC1)c(=O)n2C [AZD7648] (first compound max 1 µM, 7x7, partner max 10 µM), the “combination Emax” value is 0.421 in the assay with EW-1 (Ewing's Sarcoma); 0.399 in assay [1]; 0.563 in assay [2]; 0.597 in assay [3]; 0.258 in assay [4]; 0.936 in assay [5]. For the same molecule, the “combination Emax” value in [6] stood at 0.923; in assay [7], 1; with COLO-679 (Melanoma), 0.259; in [8] it was 1; in [9], 0.393; in assay [10], 0.381. Further, the “combination Emax” value in assay [11] is 0.704; in assay [12], 0.338; in [13] it was 0.259; in [14], 0.583; in assay [15], 0.429; in assay [16], 0.362. The Bliss excess in assay [17] is 0.0164; in assay [18], -0.0559.
In the case of `C[C@@H]1COCCN1c1cc(C2([S@](C)(=N)=O)CC2)nc(-c2ccnc3[nH]ccc23)n1` [AZD6738] + O=C(c1cc(Cc2n[nH]c(=O)c3ccccc23)ccc1F)N1CCN(C(=O)C2CC2)CC1 [Olaparib] (first compound max 10 µM, 7x7, partner max 10 µM), the “combination Emax” value in the assay with EW-1 (Ewing's Sarcoma) was found to be 0.898; in [1] it was 0.473; in [2], 0.828; in assay [3] it was 0.902; in assay [4], 0.63; in assay [5] it was 0.876. Besides, the “combination Emax” value in assay [6] came to 0.518; in assay [7], 0.706; with COLO-679 (Melanoma), 0.661; in assay [8], 0.985; in assay [9], 0.575; in [10], 0.794. Further, the “combination Emax” value was found to be 0.982 in [11]; 0.425 in [12]; 0.542 in assay [13]; 0.184 in assay [14]; 1 in assay [15]; 0.517 in assay [16]. The results for the Bliss excess in assay [17] and in assay [18] were -0.0078 and -0.0303, respectively.
For `NC1(C(=O)N[C@@H](CCO)c2ccc(Cl)cc2)CCN(c2ncnc3[nH]ccc23)CC1` [Capivasertib] + CC(=O)c1c(C)c2cnc(Nc3ccc(N4CCNCC4)cn3)nc2n(C2CCCC2)c1=O [Palbociclib] (first compound max 10 µM, 7x7, partner max 10 µM), the “combination Emax” value in the assay with EW-1 (Ewing's Sarcoma) was 0.608; in [1], 0.4; in assay [2] it was 0.724; in assay [3] it was 0.793; in assay [4], 0.413; in assay [5] it was 0.809. Besides, the “combination Emax” value is 0.721 in assay [6]; 0.722 in assay [7]; 0.324 in the assay with COLO-679 (Melanoma); 0.861 in assay [8]; 0.312 in [9]; 0.589 in [10]. Further, the “combination Emax” value in assay [11] came to 0.69; in assay [12], 0.629; in assay [13], 0.432; in assay [14], 0.177; in [15], 0.736; in assay [16] it was 0.477. Also, the Bliss excess in [17] is -0.0189; in [18] it was 0.0338.
In the case of `NC1(C(=O)N[C@@H](CCO)c2ccc(Cl)cc2)CCN(c2ncnc3[nH]ccc23)CC1` [Capivasertib] + CC(C)n1c(=O)n(C)c2cnc3cc(F)c(-c4ccc(OCCCN5CCCCC5)nc4)cc3c21 [AZD1390] (first compound max 10 µM, 7x7, partner max 0.3 µM), the “combination Emax” value in the assay with EW-1 (Ewing's Sarcoma) was determined as 0.352; in assay [1], 0.195; in assay [2] it was 0.414; in assay [3], 0.57; in assay [4], 0.342; in assay [5], 0.627. In addition, the “combination Emax” value in assay [6] was determined as 0.71; in assay [7], 0.786; with COLO-679 (Melanoma), 0.225; in assay [8], 0.722; in assay [9] it was 0.256; in [10], 0.56. Also, the “combination Emax” value in assay [11] came to 0.492; in assay [12], 0.636; in assay [13], 0.206; in assay [14] it was 0.2; in [15], 0.682; in assay [16], 0.426. Besides, the values for the Bliss excess in assay [17] and in assay [18] were -0.0543 and -0.0103, respectively.
